# Legend:
# [1] = target: T1, HCV polymerase (NS5B) type 1b (Hepatitis C virus genotype 1b, UniProt P26663); test: Assay of enzyme (HCV polymerase) inhibitory activity, type 1b enzyme; format: biochemical, HCV BK strain (type 1b); conditions: HCV polymerase inhibitory activity IC50, 1b, type 1b enzyme
# T1 construct: a region encoding NS5B (J Virol 1991 March, 65(3), 1105-13, 544 amino acids after deletion of 47 amino acids on the C-terminal); 6xHis (C); made in house; host or cells: Escherichia coli
# In short: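 His-tagged, C-terminally truncated NS5B (BK strain, 1b; 0.5 μg/ml) incubated with compound 60 min at 25 °C on 3′UTR-derived substrate RNA (5 μg/ml), 50 μM ATP/GTP/CTP, 2 μM UTP plus [3H]UTP, pH 7.5. Acid-precipitated RNA counted; IC50 from radioactivity with and without compound.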
# [2] = target: T2, HCV polymerase (NS5B) type 1a (Hepatitis C virus genotype 1a, UniProt P26664); test: Assay of enzyme (HCV polymerase) inhibitory activity, type 1a enzyme; format: biochemical, HCV type 1a (cloned from the blood of patients); conditions: HCV polymerase inhibitory activity IC50, 1a, type 1a enzyme
# T2 construct: made in house; host or cells: Escherichia coli (by the 'similar method' of the 1b enzyme)
# In short: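 His-tagged NS5B, C-terminal 47 residues deleted, type 1a at 1.5 μg/ml, with 5 μg/ml HCV 3′UTR substrate RNA, 50 μM ATP/GTP/CTP, 2 μM UTP plus [3H]UTP, pH 7.5 Tris, 5 mM MgCl2; 60 min at 25° C. TCA-precipitated RNA counted by scintillation; IC50 from radioactivity with vs. without compound.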
SMILES,IC50 [1] [µM],IC50 [2] [µM]
"CCN(C)c1ccc(CNC(=O)[C@H]2CN(c3nc4nc(Cl)ncc4s3)CCN2S(=O)(=O)c2ccc(OC(F)(F)F)cc2)cc1 [Example 958, (R)-4-(5-chloro-thiazolo[4,5-d]pyrimidin-2-yl)-1-(4-trifluoromethoxy-benzenesulfonyl)-piperazine-2-carboxylic acid 4-(ethyl-methyl-amino)-benzylamide]",< 0.1,< 0.1
"O=C(NCc1ccc(OC(F)(F)F)cc1)[C@H]1CN(c2nc3nc(Cl)ncc3s2)CCN1S(=O)(=O)c1ccc(OC(F)(F)C(F)F)cc1 [Example 959, (R)-4-(5-chloro-thiazolo[4,5-d]pyrimidin-2-yl)-1-[4-(1,1,2,2-tetrafluoro-ethoxy)-benzenesulfonyl]-piperazine-2-carboxylic acid 4-trifluoromethoxy-benzylamide]",< 0.1,< 0.1
"O=C(NCc1ccc(OC(F)(F)F)cc1)[C@H]1CN(c2nc3ncncc3s2)CCN1S(=O)(=O)c1ccc(OC(F)(F)C(F)F)cc1 [Example 960, (R)-1-[4-(1,1,2,2-tetrafluoro-ethoxy)-benzenesulfonyl]-4-thiazolo[4,5-d]pyrimidin-2-yl-piperazine-2-carboxylic acid 4-trifluoromethoxy-benzylamide]",< 0.1,< 0.1
"O=C(NCc1ccc(OC(F)(F)F)cc1)[C@H]1CN(c2nc3nc(C(F)(F)F)ncc3s2)CCN1S(=O)(=O)c1ccc(OC(F)(F)F)cc1 [Example 961, (R)-1-(4-trifluoromethoxy-benzenesulfonyl)-4-(5-trifluoromethyl-thiazolo[4,5-d]pyrimidin-2-yl)-piperazine-2-carboxylic acid 4-trifluoromethoxy-benzylamide]",< 0.1,< 0.1
"Nc1nc(Cl)nc2nc(N3CCN(S(=O)(=O)c4ccc(OC(F)(F)F)cc4)[C@@H](C(=O)NCc4ccc(OC(F)(F)F)cc4)C3)sc12 [Example 962, (R)-4-(7-amino-5-chloro-thiazolo[4,5-d]pyrimidin-2-yl)-1-(4-trifluoromethoxy-benzenesulfonyl)-piperazine-2-carboxylic acid 4-trifluoromethoxy-benzylamide]",< 0.1,< 0.1
"O=C(NCc1ccc(OC(F)(F)F)cc1)[C@H]1CN(c2nc3nc(Cl)[nH]c(=O)c3s2)CCN1S(=O)(=O)c1ccc(OC(F)(F)F)cc1 [Example 963, (R)-4-(5-chloro-7-oxo-6,7-dihydro-thiazolo[4,5-d]pyrimidin-2-yl)-1-(4-trifluoromethoxy-benzenesulfonyl)-piperazine-2-carboxylic acid 4-trifluoromethoxy-benzylamide]",< 0.1,< 0.1
"N#Cc1ncc2sc(N3CCN(S(=O)(=O)c4ccc(OC(F)(F)F)cc4)[C@@H](C(=O)NCc4ccc(OC(F)(F)F)cc4)C3)nc2n1 [Example 964, (R)-4-(5-cyano-thiazolo[4,5-d]pyrimidin-2-yl)-1-(4-trifluoromethoxy-benzenesulfonyl)-piperazine-2-carboxylic acid 4-trifluoromethoxy-benzylamide]",< 0.1,< 0.1
"COc1ccc(CNC(=O)[C@H]2CN(c3nc4nc(Cl)ncc4s3)CCN2S(=O)(=O)c2ccc(OC(F)(F)F)cc2)cc1 [Example 965, (R)-4-(5-chloro-thiazolo[4,5-d]pyrimidin-2-yl)-1-(4-trifluoromethoxy-benzenesulfonyl)-piperazine-2-carboxylic acid 4-methoxy-benzylamide]",< 0.1,< 0.1
"O=C(NCc1ccc(OCF)cc1)[C@H]1CN(c2nc3nc(Cl)ncc3s2)CCN1S(=O)(=O)c1ccc(OC(F)(F)F)cc1 [Example 966, (R)-4-(5-chloro-thiazolo[4,5-d]pyrimidin-2-yl)-1-(4-trifluoromethoxy-benzenesulfonyl)-piperazine-2-carboxylic acid 4-fluoromethoxy-benzylamide]",< 0.1,< 0.1
"O=C(NCc1ccc(OCF)cc1)[C@H]1CN(c2nc3ncncc3s2)CCN1S(=O)(=O)c1ccc(OC(F)(F)F)cc1 [Example 967, (R)-4-thiazolo[4,5-d]pyrimidin-2-yl-1-(4-trifluoromethoxy-benzenesulfonyl)-piperazine-2-carboxylic acid 4-fluoromethoxy-benzylamide]",< 0.1,< 0.1
"O=C(NCc1ccc(OC(F)F)cc1)[C@H]1CN(c2nc3nc(Cl)ncc3s2)CCN1S(=O)(=O)c1ccc(C(F)(F)F)cc1 [Example 968, (R)-4-(5-chloro-thiazolo[4,5-d]pyrimidin-2-yl)-1-(4-trifluoromethyl-benzenesulfonyl)-piperazine-2-carboxylic acid 4-difluoromethoxy-benzylamide]",< 0.1,< 0.1
"O=C(NCc1ccc(OC(F)F)cc1)[C@H]1CN(c2nc3ncncc3s2)CCN1S(=O)(=O)c1ccc(C(F)(F)F)cc1 [Example 969, (R)-4-thiazolo[4,5-d]pyrimidin-2-yl-1-(4-trifluoromethyl-benzenesulfonyl)-piperazine-2-carboxylic acid 4-difluoromethoxy-benzylamide]",< 0.1,< 0.1
"Cc1ncc2sc(N3CCN(S(=O)(=O)c4ccc(C(F)(F)F)cc4)[C@@H](C(=O)NCc4ccc(OC(F)F)cc4)C3)nc2n1 [Example 970, (R)-4-(5-methyl-thiazolo[4,5-d]pyrimidin-2-yl)-1-(4-trifluoromethyl-benzenesulfonyl)-piperazine-2-carboxylic acid 4-difluoromethoxy-benzylamide]",< 0.1,< 0.1
"O=C(NCc1ccc(C2CC2)cc1)[C@H]1CN(c2nc3nc(Cl)ncc3s2)CCN1S(=O)(=O)c1ccc(OC(F)(F)F)cc1 [Example 971, (R)-4-(5-chloro-thiazolo[4,5-d]pyrimidin-2-yl)-1-(4-trifluoromethoxy-benzenesulfonyl)-piperazine-2-carboxylic acid 4-cyclopropyl-benzylamide]",< 0.1,< 0.1
"O=C(NCc1ccc(OC(F)(F)F)cc1)[C@H]1CN(c2nc3nc(F)ncc3s2)CCN1S(=O)(=O)c1ccc(OC(F)(F)F)cc1 [Example 972, (R)-4-(5-fluoro-thiazolo[4,5-d]pyrimidin-2-yl)-1-(4-trifluoromethoxy-benzenesulfonyl)-piperazine-2-carboxylic acid 4-trifluoromethoxy-benzylamide]",< 0.1,< 0.1
"CC(C)Nc1ncc2sc(N3CCN(S(=O)(=O)c4ccc(OC(F)(F)F)cc4)[C@@H](C(=O)NCc4ccc(OC(F)(F)F)cc4)C3)nc2n1 [Example 973, (R)-4-(5-isopropylamino-thiazolo[4,5-d]pyrimidin-2-yl)-1-(4-trifluoromethoxy-benzenesulfonyl)-piperazine-2-carboxylic acid 4-trifluoromethoxy-benzylamide]",< 0.1,< 0.1
"CCN(CC)c1nc(Br)nc2nc(N3CCN(S(=O)(=O)c4ccc(C(F)(F)F)cc4)[C@@H](C(=O)NCc4ccc(OC(F)(F)F)cc4)C3)sc12 [Example 974, (R)-4-(5-bromo-7-diethylamino-thiazolo[4,5-d]pyrimidin-2-yl)-1-(4-trifluoromethyl-benzenesulfonyl)-piperazine-2-carboxylic acid 4-trifluoromethoxy-benzylamide]",> 1,> 1

# Source: patent US8017612B2, “Piperazine compound and use thereof as a HCV polymerase inhibitor” (priority 2006, dated 2011)
